Measured values as given in PubChem BioAssay (NCI).
“And” between values parts separate entries of the source, which are not always exact repeats. Identical values can stand only once.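 Exposure lasted 48 hours, with cells grown in 96-well plates and compounds tested at five concentrations. GI50 is the concentration that inhibits growth by half. At the TGI there is no net growth.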

Assays:
Experiment in all cases: NCI anticancer screen, dose series, 48 h
NCI-H460 lung = tested on: NCI-H460 lung
RXF 393 renal = tested on: RXF 393 renal
SF-268 CNS = tested on: SF-268 CNS
MCF7 breast = tested on: MCF7 breast
HOP-62 NSCLC = tested on: HOP-62 NSCLC
HT29 colon = tested on: HT29 colon
SR leukemia = tested on: SR leukemia
DU-145 prostate = tested on: DU-145 prostate
NCI-H226 lung = tested on: NCI-H226 lung
SW-620 colon = tested on: SW-620 colon

| Structure (SMILES) | GI50 (NCI-H460 lung) [µM] | TGI (NCI-H460 lung) | GI50 (RXF 393 renal) [µM] | TGI (RXF 393 renal) | GI50 (SF-268 CNS) [µM] | TGI (SF-268 CNS) | GI50 (MCF7 breast) [µM] | TGI (MCF7 breast) | GI50 (HOP-62 NSCLC) [µM] | TGI (HOP-62 NSCLC) | GI50 (HT29 colon) [µM] | TGI (HT29 colon) | GI50 (SR leukemia) [µM] | TGI (SR leukemia) | GI50 (DU-145 prostate) [µM] | TGI (DU-145 prostate) | GI50 (NCI-H226 lung) [µM] | TGI (NCI-H226 lung) | GI50 (SW-620 colon) [µM] | TGI (SW-620 colon) |
| --- | --- | --- | --- | --- | --- | --- | --- | --- | --- | --- | --- | --- | --- | --- | --- | --- | --- | --- | --- | --- |
| Cc1ccc(S(=O)(=O)OCC(=O)Nc2ccc(C(=O)O)c(O)c2)cc1 | 124 | 292 µM | 16.5 | 85 µM | 19.5 | 53.5 µM | 23.9 | 121 µM | 32.6 | 86 µM | 38.6 | 172 µM | 0.195 | 7.08 µM | 26.8 | 75.9 µM | 30.9 | 139 µM | 43.7 | 145 µM |
| CCC(CC)c1cc(N[C@H]2CC[C@H](N)C2)n2nccc2n1 | 0.358 | > 100 µM | 0.632 | 2.36 µM | 2.44 | 13.9 µM | 0.328 | > 100 µM | 0.99 | > 100 µM | 0.735 | > 100 µM | 0.332 | > 100 µM | 0.708 | > 100 µM | 0.969 | 48.7 µM | 0.626 | > 100 µM |
| CON=C1C[C@]2(C[C@@H]3C[C@@H](C/C=C(\C)C[C@@H](C)/C=C/C=C4\CO[C@@H]5[C@H](O)C(C)=C[C@@H](C(=O)O3)[C@]45O)O2)O[C@H](/C(C)=C/C(C)C)[C@H]1C | 13.1 | 30.3 µM | 16.4 | 30.6 µM | 13 | 27.5 µM | 15.9 | 30 µM | 15.5 | 29 µM | 11.1 | 25.3 µM | 3.91 | 40.9 µM | 7.55 | 20.1 µM | 16 | 29.8 µM | 11.8 | 25.3 µM |
| CC(C)(C)[Si](C)(C)OC1[C@@H](O[Si](C)(C)C(C)(C)C)[C@@H](CNC(=O)NC(=O)NC(=O)CCl)O[C@H]1n1cnc2c(NC(=O)Nc3ccccc3)ncnc21 (stereo partly specified) | 2.23 | 12.1 µM | 2.13 | 6.88 µM | 4.51 | 14 µM | 3.76 | 11.9 µM | 1.66 | 4.8 µM | 1.43 | 3.67 µM | 0.226 | 0.81 µM | 7.88 | 16.4 µM | 8.67 | 15.9 µM | 3.52 | 11.6 µM |
| C=C1C[C@@H](O)[C@@H](Br)C(C)(C)[C@]12CCC(C)(Br)C(Cl)C2 (stereo partly specified) | 18 | > 50 µM and 32.4 µM | 18.5 | > 50 µM and 37.2 µM | 19.1 | > 50 µM and 35.8 µM | 16.8 | > 50 µM and 31.1 µM | 15.4 | > 50 µM and 35.9 µM | 1.95 | 50 µM and 16.4 µM | 18.9 | > 50 µM and 37.2 µM | 18.7 | > 50 µM and 36 µM | 15.6 | 50 µM and 29.9 µM | 15.2 | > 50 µM and 33 µM |
| CCCCCCCCCCCCNC(=O)N[C@H](C(=O)N[C@H]1/C=C/CCNC(=O)/C=C/[C@H](C)NC1=O)C(C)C | 0.0416 | 0.288 µM | 0.0166 | 0.0405 µM | 0.0543 | 1.04 µM | 0.0577 | 15.6 µM | 0.0538 | 0.178 µM | 0.0216 | 0.331 µM | 0.0294 | 0.958 µM | 0.108 | 3.78 µM | 0.0582 | 0.167 µM | 0.0504 | 1.34 µM |
| CC(=O)NC(CS)C(=O)O (stereo unspecified) | – | 62300 µM | > 100 | > 100 µM and 69300 µM | > 100 | > 100 µM and 63800 µM | > 100 | > 100 µM and 71300 µM | – | 45500 µM | > 100 | > 100 µM and 86700 µM | > 100 | > 100 µM | > 100 | > 100 µM | > 100 | > 100 µM and 45000 µM | > 100 | > 100 µM |
| O=C(O)c1ccc(NCc2nc3ccccc3[nH]2)cc1 | > 100 | > 100 µM | > 100 | > 100 µM | > 100 | > 100 µM | 99.9 | > 100 µM | > 100 | > 100 µM | > 100 | > 100 µM | > 100 | > 100 µM | > 100 | > 100 µM | > 100 | > 100 µM | > 100 | > 100 µM |
| COc1ccc(Cc2cc(OC)c(OC)c(OC)c2)cc1 | – | 47 µM | – | 3.38 µM | – | > 100 µM | – | > 100 µM | – | > 100 µM | – | 8.25 µM | – | 1.4 µM | – | 6.38 µM | – | 12 µM | – | > 100 µM |
| Cc1cc(O[C@@H]2O[C@@H](C)[C@H](O)[C@@H](O)[C@H]2O)c2c3c(c(O[C@@H]4O[C@@H](C)[C@H](O)[C@@H](O)[C@H]4O)cc2c1)C(=O)c1c(O)cccc1C3=O | > 30 | > 30 µM | > 30 | > 30 µM | > 30 | > 30 µM | > 30 | > 30 µM | > 30 | > 30 µM | > 30 | > 30 µM | > 30 | > 30 µM | > 30 | > 30 µM | > 30 | > 30 µM | > 30 | > 30 µM |
| O=C(NCCCl)NCCN1c2nc3ccccc3cc2Sc2cc3ccccc3nc21 | 0.475 | 1.94 µM | 6.45 | 27.9 µM | 3.63 | > 41 µM | 1.02 | 2.59 µM | 2.8 | 9.87 µM | 1.11 | 8.89 µM | – | > 23.3 µM | 3.28 | > 39.4 µM | 1.82 | 19 µM | 1.16 | 2.95 µM |
| COc1ccc2nc3cc(Cl)ccc3c(NCCNCC(O)CO)c2c1 (stereo unspecified) | 0.631 | 3.33 µM | 1.66 | 4.75 µM | 1.03 | 13.1 µM | 0.624 | 10.1 µM | 1.1 | 4.74 µM | 0.726 | 6.91 µM | 0.597 | 10.8 µM | 1.88 | 11.4 µM | 2.18 | 12.1 µM | 0.61 | 11.3 µM |
| CC1NC(C(=O)O)Cc2cc(O)c(O)cc21 (stereo unspecified) | – | > 100 µM | – | > 100 µM | – | > 100 µM | – | > 100 µM | – | > 100 µM | – | > 100 µM | – | > 100 µM | – | > 100 µM | – | > 100 µM | – | > 100 µM |
| O=C(/C=C/c1ccco1)Nc1ncc(Cc2cccc(C(F)(F)F)c2)s1 | 0.0401 | 9.59 µM | 0.0576 | 0.853 µM | 0.167 | > 44.2 µM | 0.0367 | > 56.2 µM | 0.0965 | 6.32 µM | 0.0388 | > 33 µM | 0.0334 | 3.67 µM | 0.103 | > 24.3 µM | 0.336 | – | 0.0422 | > 100 µM |
| O=C(CN1CCN(CCN2C(=O)c3cccc4cccc(c34)C2=O)CC1)Nc1ccc2ncsc2c1 | 3.58 | 14.7 µM | 6.32 | > 100 µM | 6.07 | 25 µM | 4.65 | 17.5 µM | 5.69 | 23.4 µM | 3.61 | 16.5 µM | 1.38 | 41.2 µM | 5.92 | 19.6 µM | 7.58 | > 100 µM | 3.19 | 19.3 µM |
| C[C@@H]1CC[C@H]2[C@@H](C)C(OC/C=C/COC3O[C@@H]4O[C@@]5(C)CC[C@H]6[C@H](C)CC[C@@H]([C@H]3C)[C@@]46OO5)O[C@@H]3O[C@@]4(C)CC[C@@H]1[C@]32OO4 (stereo partly specified) | < 0.01 | > 41.4 µM | < 0.01 | 28.2 µM | 0.045 | > 47.1 µM | < 0.01 | 20.1 µM | 0.0791 | 34.2 µM | < 0.01 | > 100 µM | < 0.01 | 3.85 µM | 30.5 | > 100 µM | < 0.0206 | 0.832 µM | < 0.01 | > 100 µM |
| NC(CP(=O)(O)O)C(=O)O (stereo unspecified) | – | > 100 µM | – | > 100 µM | – | > 100 µM | – | > 100 µM | – | > 100 µM | – | > 100 µM | – | > 100 µM | – | > 100 µM | – | > 100 µM | – | > 100 µM |
| CCOC(=O)C1=C(C)NC(C)=C(C(=O)OCCNC(=O)c2ccc(N=[N+]=[N-])cc2)C1c1ccccc1C(F)(F)F (stereo unspecified) | – | 21.5 µM | – | 21.5 µM | – | 21.5 µM | – | 12.2 µM | – | > 21.5 µM | – | 21.5 µM | – | 21.5 µM | – | 21.5 µM | – | 21.5 µM | – | 21.5 µM |
| CCSc1nc(NC(C)c2ccccc2)c2cnn(CO)c2n1 (stereo unspecified) | 32.8 | > 100 µM | 91.5 | > 100 µM | > 100 | > 100 µM | 52.8 | > 100 µM | > 100 | > 100 µM | > 100 | > 100 µM | 79.4 | > 100 µM | > 100 | > 100 µM | 47 | > 100 µM | 67.9 | > 100 µM |
